{"source": "patent US20170252446A1", "about": "“USE OF MESO- AND NANOPOROUS MATERIAL FOR SURFACTANT TRAPPING IN NANOPARTICLE SUSPENSIONS” (Therakine BioDelivery GmbH, priority 2014, published 2017)", "assay": "Surface tension of SDS solution after repeated additions of mesoporous MCM particles (surfactant trapping)", "assay_type": "physicochemical", "conditions": "pure SDS solution (8.2 mM), before addition of MCM particles", "method": "Anionic mesoporous nanoparticles (MCM) were suspended into water, wetted, and separated from free water by centrifugation. Pure sodium dodecyl sulphate (SDS) solution (8.2 mM) provides a starting surface tension of about 36.5 mN/m. Per 1 g of MCM particles, 15 mL of SDS is added, resulting in an increase of the surface tension to 45 mN/m. Second, third, and fourth additions result in 57.5 mN/m, 66.8 mN/m, and 70.5 mN/m, respectively. After four mesoporous particle additions, the pure water value is already approached. This is illustrated in FIG. 1. Such non-limiting methods have been unexpectedly discovered to be useful for reliably and predictably preparing a stable nanoparticle suspension of a poorly soluble active ingredient. Cationic mesoporous nanoparticles (MCM) are suspended in water, wetted, and separated from free water by centrifugation. Pure sodium dodecyl sulphate (SDS) solution (8.2 mM) provides a starting surface tension of about 36.5 mN/m. Per 1 g of MCM particles, 15 mL of SDS is added, resulting in an increase of the surface tension to 40 mN/m. Second and third additions result in 54.0 mN/m and 70.0 mN/m, respectively. After three mesoporous particle additions, the pure water value is already approached. This is illustrated in FIG. 2. […]", "data": [{"smiles": "CCCCCCCCCCCCOS(=O)(=O)[O-].[Na+]", "note": "[sodium dodecyl sulphate (SDS), sodium dodecyl sulphate]", "values": [{"measurement": "starting surface tension", "value": "about 36.5 mN/m"}]}]}
